Measurements from patent US5510331A, “Antihypertensive peptides” (Roussel UCLAF, priority 1990, dated 1996).
Where a SMILES comes first, the peptide text is derived from it. Bridges are numbered along the chain shown (N, C = ends). [ ]: non-standard residue; d: D form. d2Nal = N[C@H](Cc1ccc2ccccc2c1)C(=O)O; Nle = CCCC[C@H](N)C(=O)O

Molecular target: endotheline receptor
Test: Activity on the endotheline receptor: displacement of 125I endotheline from rat brain membrane preparation
Type: binding
Details: membrane preparation from rat posterior cortex and brain, 25° C., 60 minutes, 7 concentrations, read-out: IC50 (50% inhibiting concentration; concentration necessary to displace 50% of the specific radioactivity fixed on the receptor)
Procedure: A membrane preparation was made from rat posterior cortex and brain and the tissue was ground with a POLYTRON in a 50 mM Tris buffer pH=7.4. After 30 minutes at 25° C. (W.B.), the homogenate was centrifuged at 30,000 g for 15 minutes (2 centrifugations with intermediate taking up in the Tris buffer pH 7.4). The deposits were suspended in an incubation buffer (Tris 25 mM, pepstatine A 5 microg/ml, aprotinine 3 microg/ml, PMSF 0.1 mM, EDTA 3 mM, EGTA 1 mM pH 7.4). 2 ml aliquots were distributed in hemolysis tubes and ^125 I endotheline (approximately 50,000 dpm/tube) and the product to be studied were added. The product was first tested at 3×10^-5 M in triplicate. When the product tested displaced more than 50% of radioactivity linked specifically to the receptor, it was tested again in a range of 7 concentrations to determine the concentration which inhibited the radioactivity linked specifically to the receptor by 50%. In this way, the 50% inhibiting concentration was determined.
The non-specific bond was determined by the addition of endotheline at 10^-6 M (in triplicate) and the deposits were incubated at 25° C. for 60 minutes, put in a water-bath at 0° C. for 5 minutes, filtered under reduced pressure and rinsed with a Tris buffer 7.4 pH. The radioactivity was counted in the presence of scintillating Triton. The result was expressed directly as a 50% inhibiting concentration (IC50), or the concentration of product studied expressed in nM necessary to displace 50% of the specific radioactivity fixed on the receptor studied.

Row | SMILES | IC50 [nM]
1 | CC[C@H](C)[C@H](NC(=O)[C@H](CC(=O)O)NC(=O)[C@H](CC(C)C)NC(=O)[C@H](Cc1c[nH]cn1)NC(=O)[C@@H]1CSSC[C@H](N)C(=O)N[C@@H](CO)C(=O)N[C@H]2CSSC[C@H](NC(=O)[C@H](CCC(=O)O)NC(=O)[C@H](CCCCN)NC(=O)[C@H](CC(=O)O)NC(=O)CNC(=O)[C@H](CC(C)C)NC(=O)[C@H](CO)NC(=O)[C@H](CO)NC2=O)C(=O)N[C@@H](C(C)C)C(=O)N[C@@H](Cc2ccc(O)cc2)C(=O)N[C@@H](Cc2ccccc2)C(=O)N1)C(=O)N[C@H](C(=O)N[C@@H](Cc1c[nH]c2ccccc12)C(=O)O)[C@@H](C)CC [Example 2, (Gly-7)--ET1 derivative] (H-CSCSSLGDKECVYFCHLDIIW-OH; disulfide 1-15, 3-11) | 1.4
2 | CCCC[C@@H]1NC(=O)[C@H](CC(C)C)NC(=O)[C@H](CO)NC(=O)[C@H](CO)NC(=O)[C@@H]2CSSC[C@H](NC(=O)[C@H](CCC(=O)O)NC(=O)[C@H](CCCCN)NC(=O)[C@H](CC(=O)O)NC1=O)C(=O)N[C@@H](C(C)C)C(=O)N[C@@H](Cc1ccc(O)cc1)C(=O)N[C@@H](Cc1ccccc1)C(=O)N[C@H](C(=O)N[C@@H](Cc1c[nH]cn1)C(=O)N[C@@H](CC(C)C)C(=O)N[C@@H](CC(=O)O)C(=O)N[C@H](C(=O)N[C@H](C(=O)N[C@H](Cc1ccc3ccccc3c1)C(=O)O)[C@@H](C)CC)[C@@H](C)CC)CSSC[C@H](N)C(=O)N[C@@H](CO)C(=O)N2 [Example 3, (Nle-7)-DiNaphtylalanine-21-ET1 derivative] (H-CSCSSL[Nle]DKECVYFCHLDII[d2Nal]-OH; disulfide 1-15, 3-11) | 2
3 | CCCC[C@@H]1NC(=O)[C@H](CC(C)C)NC(=O)[C@H](CO)NC(=O)[C@H](CO)NC(=O)[C@@H](N)CSSC[C@@H](C(=O)N[C@@H](Cc2c[nH]cn2)C(=O)N[C@@H](CC(C)C)C(=O)N[C@@H](CC(=O)O)C(=O)N[C@H](C(=O)N[C@H](C(=O)N[C@@H](Cc2c[nH]c3ccccc23)C(=O)O)[C@@H](C)CC)[C@@H](C)CC)NC(=O)[C@H](CCC(=O)O)NC(=O)[C@H](CCCCN)NC(=O)[C@H](CC(=O)O)NC1=O [Example 7] (H-CSSL[Nle]DKECHLDIIW-OH; disulfide 1-9) | 3520
4 | CCCC[C@H](NC(=O)[C@H](CC(C)C)NC(=O)[C@H](CO)NC(=O)[C@H](CO)NC(=O)[C@@H](N)CS)C(=O)N[C@@H](CC(=O)O)C(=O)N[C@@H](CCCCN)C(=O)N[C@@H](CCC(=O)O)C(=O)N[C@@H](CS)C(=O)N[C@@H](Cc1c[nH]cn1)C(=O)N[C@@H](CC(C)C)C(=O)N[C@@H](CC(=O)O)C(=O)N[C@H](C(=O)N[C@H](C(=O)N[C@@H](Cc1c[nH]c2ccccc12)C(=O)O)[C@@H](C)CC)[C@@H](C)CC [Example 8] (H-CSSL[Nle]DKECHLDIIW-OH) | 5350
5 | CC[C@H](C)[C@H](NC(=O)[C@H](CC(=O)O)NC(=O)[C@H](CC(C)C)NC(=O)[C@H](Cc1c[nH]cn1)NC(=O)[C@@H]1CSSC[C@H](N)C(=O)N[C@@H](CC(C)C)C(=O)N[C@@H](C)C(=O)NCC(=O)N2CCC[C@H]2C(=O)N[C@@H](CC(N)=O)C(=O)NCC(=O)N[C@@H](Cc2ccc(O)cc2)C(=O)N1)C(=O)N[C@H](C(=O)N[C@@H](Cc1c[nH]c2ccccc12)C(=O)O)[C@@H](C)CC [Example 9] (H-CLAGPNGYCHLDIIW-OH; disulfide 1-9) | 7500
6 | CC[C@H](C)[C@H](NC(=O)[C@H](CC(=O)O)NC(=O)[C@H](CC(C)C)NC(=O)[C@H](Cc1c[nH]cn1)NC(=O)[C@H](CS)NC(=O)[C@H](Cc1ccc(O)cc1)NC(=O)CNC(=O)[C@H](CC(N)=O)NC(=O)[C@@H]1CCCN1C(=O)CNC(=O)[C@H](C)NC(=O)[C@H](CC(C)C)NC(=O)[C@@H](N)CS)C(=O)N[C@H](C(=O)N[C@@H](Cc1c[nH]c2ccccc12)C(=O)O)[C@@H](C)CC [Example 10] (H-CLAGPNGYCHLDIIW-OH) | 620
7 | CC[C@H](C)[C@H](NC(=O)[C@H](CC(=O)O)NC(=O)[C@H](CC(C)C)NC(=O)[C@H](Cc1c[nH]cn1)NC(=O)[C@@H]1CSSC[C@H](N)C(=O)N[C@@H]([C@@H](C)O)C(=O)N[C@H]2CSSC[C@H](NC(=O)[C@H](CCC(=O)O)NC(=O)[C@H](CCCCN)NC(=O)[C@H](CC(=O)O)NC(=O)[C@H]([C@@H](C)O)NC(=O)[C@H](CCSC)NC(=O)[C@H](CC(=O)O)NC(=O)[C@H](CCCCN)NC2=O)C(=O)N[C@@H](C(C)C)C(=O)N[C@@H](Cc2ccc(O)cc2)C(=O)N[C@@H](Cc2ccccc2)C(=O)N1)C(=O)N[C@H](C(=O)N[C@@H](Cc1c[nH]c2ccccc12)C(=O)O)[C@@H](C)CC [Example 11] (H-CTCKDMTDKECVYFCHLDIIW-OH; disulfide 1-15, 3-11) | 1.3
8 | CCCC[C@@H]1NC(=O)[C@H](CC(C)C)NC(=O)[C@H](CO)NC(=O)[C@H](CO)NC(=O)[C@@H]2CSSC[C@H](NC(=O)[C@H](CCC(=O)O)NC(=O)[C@H](CCCCN)NC(=O)[C@H](CC(=O)O)NC1=O)C(=O)N[C@@H](C(C)C)C(=O)N[C@@H](Cc1ccc(O)cc1)C(=O)N[C@@H](Cc1ccccc1)C(=O)N[C@H](C(=O)N[C@@H](Cc1c[nH]cn1)C(=O)N[C@@H](CCC(N)=O)C(=O)N[C@@H](CC(=O)O)C(=O)N[C@H](C(=O)N[C@H](C(=O)N[C@@H](Cc1c[nH]c3ccccc13)C(=O)O)[C@@H](C)CC)[C@@H](C)CC)CSSC[C@H](N)C(=O)N[C@@H](CO)C(=O)N2 [Example 12] (H-CSCSSL[Nle]DKECVYFCHQDIIW-OH; disulfide 1-15, 3-11) | 2.3
9 | CC[C@H](C)[C@H](NC(=O)[C@H](CC(=O)O)NC(=O)[C@H](CCC(N)=O)NC(=O)[C@H](Cc1c[nH]cn1)NC(=O)[C@@H]1CSSC[C@H](N)C(=O)N[C@@H](CO)C(=O)N[C@H]2CSSC[C@H](NC(=O)[C@H](CCC(=O)O)NC(=O)[C@H](CCCCN)NC(=O)[C@H](CC(=O)O)NC(=O)[C@H](CCSC)NC(=O)[C@H](CC(C)C)NC(=O)[C@H](CO)NC(=O)[C@H](CO)NC2=O)C(=O)N[C@@H](CC(C)C)C(=O)N[C@@H](Cc2ccc(O)cc2)C(=O)N[C@@H](Cc2ccccc2)C(=O)N1)C(=O)N[C@H](C(=O)N[C@@H](Cc1c[nH]c2ccccc12)C(=O)O)[C@@H](C)CC [Example 13] (H-CSCSSLMDKECLYFCHQDIIW-OH; disulfide 1-15, 3-11) | 3.5
10 | CC[C@H](C)[C@H](NC(=O)[C@H](CC(=O)O)NC(=O)[C@H](CCCNC(=N)N)NC(=O)[C@H](Cc1c[nH]cn1)NC(=O)[C@@H]1CSSC[C@H](N)C(=O)N[C@@H]([C@@H](C)O)C(=O)N[C@H]2CSSC[C@H](NC(=O)[C@H](CCC(=O)O)NC(=O)[C@H](CCCCN)NC(=O)[C@H](CC(=O)O)NC(=O)[C@H]([C@@H](C)O)NC(=O)[C@H](CCSC)NC(=O)[C@H](CC(=O)O)NC(=O)[C@H](CCCCN)NC2=O)C(=O)N[C@@H](CC(C)C)C(=O)N[C@@H](Cc2ccc(O)cc2)C(=O)N[C@@H](Cc2ccccc2)C(=O)N1)C(=O)N[C@H](C(=O)N[C@@H](Cc1c[nH]c2ccccc12)C(=O)O)[C@@H](C)CC [Example 15] (H-CTCKDMTDKECLYFCHRDIIW-OH; disulfide 1-15, 3-11 (inferred); N-terminus assumed) | 1.8
